# Results as given in US8592611B2, “Trioxane dimer sulfur compounds” (The Johns Hopkins University, priority 2008, dated 2013).
# Tests used:
# [1] = system: chloroquine-sensitive P. falciparum (NF54); experiment: in vitro antimalarial activity, [3H]hypoxanthine incorporation; type: cell-based; details: Plasmodium falciparum
# From the text: To determine the antimalarial effect of the disclosed trioxane sulfur dimer compounds of Formula I, screening assays may be performed against chloroquine-sensitive P. falciparum (NF54). Using the methods described below, the IC50 values of these compounds may be determined.
# Antimalarial activity may be determined by measuring the incorporation of [^3H]hypoxanthine by the methods of DesJardins and Milhous with the following modifications, see Desjardins, R. E.; Canfield, C. J.; Haynes, J. D.; Chulay, J. D., Antimicrob. Agents Chemother., 16:710 (1979); Milhous, W. K.; Weatherly, N. F.; Bowdre, J. H.; Desjardins, R., Antimicrob. Agents Chemother., 27:525 (1985). […]
# Stock solutions (approximately 2.5 mg/mL of HPLC-purified or recrystallized test compound) are prepared in dimethyl sulfoxide (DMSO; Sigma-Aldrich #27,043-1). […] Cells may be harvested (Brandel MB-48R) onto GF-C glass filters (Brandel), and the filters washed five times with 3 mL water per sample spot, dried under a heat lamp, and counted (Beckman Model LS-6500) in scintillation cocktail (ICN Cytoscint).
# Decays per minute (dpm) values may be downloaded and analyzed (Power Macintosh 7200/90; Microsoft Excel 5.0), to yield the mean and standard deviation at each drug concentration. […]
# P388 leukemia = details: NCI Report on NSC 369397, tested on 25 Oct. 1983; cited from earlier work
# [2] = system: P. vivax and P. falciparum; details: 2099 cases of malaria (P. vivax and P. falciparum about 3:1), different dosage forms; cited from earlier work
# [3] = system: human HeLa cervical cancer cells; details: human HeLa cervical cancer cells in vitro; cited from earlier work
IC50 [1],Compound,activity against P388 leukemia (P388 leukemia),clinical outcome [2],IC50 [3]
0.0077 µM,C[C@@H]1CC[C@H]2[C@@H](C)C(=O)O[C@@H]3O[C@]4(C)CC[C@@H]1[C@]32OO4 [artemisinin],inactive,clinical cure of all patients,–
–,C[C@@H]1CC[C@H]2[C@@H](C)C(O)O[C@@H]3O[C@]4(C)CC[C@@H]1[C@]32OO4 (stereo partly shown) [dihydroartemisinin],–,–,5 to 10 µM
